{"source": "patent US8940690B2", "about": "“Synthetic conjugates and uses thereof” (National Institutes of Health (NIH), priority 2009, dated 2015)", "key": {"[1]": {"test_system": "fasted normal non-diabetic rats (Male Sprague-Dawley)", "assay": "Blood glucose depression profile after subcutaneous injection", "format": "in vivo, rat", "protocol": "Subcutaneous injections of the insulin-dextran were administered using 0.25 ml of a sterilized 1×PBS solution (20 U of equivalent insulin/ml) behind the neck of fasted normal non-diabetic rats (Male Sprague-Dawley, 200-250 g, n=4). Blood samples were collected via tail vein bleeding at −15 and 0 minutes, and at 15, 30, 45, 60, 90, 120, 180, 240, 300 and 360 minutes after injection. Blood glucose values were measured using commercially available test strips (Precision Xtra, Abbott Laboratories, Abbott Park, Ill.).\nThis example evaluates the in vivo pharmacodynamic profile of subcutaneously administered insulin-glycogen. […] The bioactivity of the insulin-glycogen conjugate was evaluated by injecting a 2.5 equivalent U of insulin/kg dose behind the neck of fasted normal non-diabetic rats (Male Sprague-Dawley, 200-250 g, n=4). Blood samples were collected via tail vein bleeding at −15 and 0 minutes, and at 15, 30, 45, 60, 90, 120, 180, 240, 300 and 360 minutes after injection. Blood glucose values were measured using commercially available test strips (Precision Xtra, Abbott Laboratories, Abbott Park, Ill.)."}, "[2]": {"assay": "Serum insulin (PK) profile after subcutaneous injection, Human Insulin ELISA", "format": "in vivo, rat", "conditions": "5 U/kg", "protocol": "Blood samples were collected via tail vein bleeding at 0 minutes and at 30, 60, 90, 120, 150, 180, 210, 240, and 300 minutes after injection. Blood from each timepoint was centrifuged at 4 C to collect the serum. Serum insulin concentrations were subsequently measured with a commercially available ELISA kit (Human Insulin ELISA, Mercodia, Uppsala, Sweden).\nThis example describes the serum insulin and blood glucose depression profiles obtained for a subcutaneously administered exemplary conjugate. […] In this case, the conjugate was injected at 5 U/kg behind the neck of fasted normal non-diabetic rats (Male Sprague-Dawley, 400-500 g, n=3). […] Serum insulin concentrations were subsequently measured with a commercially available ELISA kit (Human Insulin ELISA, Mercodia, Uppsala, Sweden).\nIn each case, the conjugate or insulin lispro was injected at 3.5 U/kg behind the neck of fasted normal non-diabetic rats (Male Sprague-Dawley, 400-500 gm, n=6). […] Serum insulin concentrations were subsequently measured with a commercially available ELISA kit (Human Insulin ELISA, Mercodia, Uppsala, Sweden).\nBlood samples were collected via tail vein bleeding at 0 minutes and at 30, 60, 90, 120, 150, 180, 210, 240, and 300 minutes after injection. […] Serum insulin concentrations were subsequently measured with a commercially available ELISA kit (Human Insulin ELISA, Mercodia, Uppsala, Sweden)."}, "[3]": {"conditions": "0.25 ml of 20 U of equivalent insulin/ml"}}}
{"substance": "insulin-glycogen: comparative insulin-glycogen conjugate from oyster glycogen Type II according to US 20070099820", "values": [{"measurement": "glucose lowering compared to insulin-dextran conjugates", "setting": "[1]; 2.5 equivalent U of insulin/kg", "result": "lower glucose levels much more rapidly and to a greater extent"}]}
{"substance": "insulin-dextran: comparative insulin-dextran conjugate (dextran MW 70K) made by CNBr coupling, 10% (w/w) insulin", "values": [{"measurement": "time serum glucose levels remain depressed post injection", "setting": "[1]; [3]", "result": "at least five"}, {"measurement": "time to reach the glucose nadir (Tnadir)", "setting": "[1]; [3]", "result": "about 3 hours"}]}
{"substance": "B29-substituted conjugate: synthesized using TSAT-C6 as the framework, AEM as the affinity ligand, and recombinant human insulin as the drug", "values": [{"measurement": "pharmacokinetic profile (serum insulin) compared to RHI and B1-substituted conjugate", "setting": "[2]", "result": "statistically indistinguishable from that of RHI"}]}
